Test results reported in patent US5447720A, “Composition and method for treatment of hemoglobinopathies” (Fadulu; Sunday O., priority 1993, dated 1995).

Tests used:
sickling [1] = details: words; cited from earlier work
HbF = details: sickle cell patients; words; cited from earlier work
sickling [2] = test: Anti-sickling activity of acid components (test not specified); details: words

## O=C(O)c1ccccc1CO [2-hydroxymethylbenzoic acid]
Sickling [1]
  in vitro anti-sickling effect (literature): in vitro nonsickling characteristics

## Nc1ncn([C@@H]2O[C@H](CO)[C@@H](O)[C@H]2O)c(=O)n1 [5-azacytidine]
HbF
  effect on HbF levels (literature): increased HbF levels

## CCCCC/C=C\C/C=C\CCCCCCCC(=O)O [linoleic]
Sickling [2]
  anti-sickling activity of less polar acids: little if any anti-sickling activity

## CC/C=C\C/C=C\C/C=C\CCCCCCCC(=O)O [linolenic]
Sickling [2]
  anti-sickling activity of less polar acids: little if any anti-sickling activity

## CCCCCCCC/C=C\CCCCCCCC(=O)O [oleic acids]
Sickling [2]
  anti-sickling activity of less polar acids: little if any anti-sickling activity

## CCCCCCCCCCCCCCCCCC(=O)O [stearic]
Sickling [2]
  anti-sickling activity of less polar acids: little if any anti-sickling activity

## arginine butyrate
HbF
  effect on HbF levels (literature): rapid stimulation of the HbF
